EC50 and Kd data for 17 molecules are collected here from US10947252B2, “Inhibitors of KEAP1-Nrf2 protein-protein interaction” (Janssen Pharmaceutica NV, priority 2018, dated 2021).

A value given as a limit tells only on which side of the number the result lay.

The subject of test [1] is Glo-Response ARE-luc2P HEK293 cell line. The experiment in a line: ARE luciferase reporter cell-based assay.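 Further: luciferase signal tracks Nrf2 activation of the ARE once compounds disrupt KEAP1-Nrf2 binding, read with One-Glo reagent, DMSO serving as low control.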 Particulars: Homo sapiens, HEK293, 24 h, average of results obtained.
In test [2] the target is Kelch domain of human KEAP1 (321-624 aa) (Homo sapiens (Human), UniProt Q14145). The experiment in a line: KEAP1 KELCH ThermoFluor binding assay.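 Further: Ligand-induced melting temperature shift of E. coli-expressed KEAP1 Kelch protein, Kd estimated from concentration-response curves of ΔTm.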 Particulars: KEAP Kelch […], 1,8-ANS, pH 7.0, average of results obtained, read-out: Tf Kd.
Chain of Kelch domain of human KEAP1 (321-624 aa) (Q14145 321-624): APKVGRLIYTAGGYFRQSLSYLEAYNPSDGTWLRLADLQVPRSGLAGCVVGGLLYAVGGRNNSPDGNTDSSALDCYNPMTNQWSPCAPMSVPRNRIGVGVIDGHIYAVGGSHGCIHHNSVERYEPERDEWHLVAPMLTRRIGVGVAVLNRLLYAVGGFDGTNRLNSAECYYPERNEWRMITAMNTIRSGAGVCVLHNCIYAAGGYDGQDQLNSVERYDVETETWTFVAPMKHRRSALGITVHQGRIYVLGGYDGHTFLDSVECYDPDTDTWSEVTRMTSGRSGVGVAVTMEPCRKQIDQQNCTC

In test [1], `Cc1ccc([C@H](CC(=O)O)c2cc(OC3CC3)c3c(c2)nnn3C)cc1CN1C[C@H]2CCCCN2c2ncccc2S1(=O)=O` (single isomer, unassigned) [Example 405, (*S)-3-(7-Cyclopropoxy-1-methyl-1H-benzo[d][1,2,3]triazol-5-yl)-3-(3-(((*R)-5,5-dioxido-7,7a,8,9,10,11-hexahydro-6H-dipyrido[2,1-d:2′,3′-f][1,2,5]thiadiazepin-6-yl)methyl)-4-methylphenyl)propanoic Acid] registered an EC50 of 7.4 nM. For the same molecule, the dissociation constant (Kd) in test [2] was less than 1 nM.
Regarding `Cc1cc2cc(C(CC(=O)O)c3ccc(C)c(CN4C[C@H]5CCCCN5c5ncccc5S4(=O)=O)c3)n(C)c2nn1` (stereo in doubt) [Example 443, 3-(3,7-Dimethyl-7H-pyrrolo[2,3-c]pyridazin-6-yl)-3-(3-(((*R)-5,5-dioxido-7,7a,8,9,10,11-hexahydro-6H-dipyrido[2,1-d:2′,3′-f][1,2,5]thiadiazepin-6-yl)methyl)-4-methylphenyl)propanoic Acid], the EC50 in test [1] turned out to be 1100 nM. In addition, the Kd in test [2] is less than 1 nM.
In test [1], `CCn1nnc2c(C)c(C(CC(=O)O)c3ccc(C)c(CN4C[C@H]5CCCN5c5ncccc5S4(=O)=O)n3)ccc21` (stereo partly drawn) [Example 296, 3-(6-(((R)-5,5-Dioxido-7a,8,9,10-tetrahydropyrido[2,3-f]pyrrolo[2,1-d][1,2,5]thiadiazepin-6(7H)-yl)methyl)-5-methylpyridin-2-yl)-3-(1-ethyl-4-methyl-1H-benzo[d][1,2,3]triazol-5-yl)propanoic Acid] returned an EC50 of 13.6 nM. In test [2], the Kd was less than 1 nM.
The molecule `Cc1ccc([C@H](CC(=O)O)c2ccn3c(C(F)(F)F)nnc3c2C)cc1CN1C[C@@H]2CCC(F)(F)CN2c2ncccc2S1(=O)=O` (single isomer, unassigned) [Example 453, (*S)-3-(3-(((*S)-10,10-Difluoro-5,5-dioxido-7,7a,8,9,10,11-hexahydro-6H-dipyrido[2,1-d:2′,3′-f][1,2,5]thiadiazepin-6-yl)methyl)-4-methylphenyl)-3-(8-methyl-3-(trifluoromethyl)-[1,2,4]triazolo[4,3-a]pyridin-7-yl)propanoic Acid] came in with an EC50 in test [1] of 162 nM. Also, the Kd in test [2] was less than 1 nM.
In the same order, the values of `Cc1cc2cc([C@@H](CC(=O)O)c3ccc(C)c(CN4C[C@H]5CCCCN5c5ncccc5S4(=O)=O)c3)n(C)c2nn1` (single isomer, unassigned) [Example 444, (*S)-3-(3,7-Dimethyl-7H-pyrrolo[2,3-c]pyridazin-6-yl)-3-(3-(((*R)-5,5-dioxido-7,7a,8,9,10,11-hexahydro-6H-dipyrido[2,1-d:2′,3′-f][1,2,5]thiadiazepin-6-yl)methyl)-4-methylphenyl)propanoic Acid] are more than 20000 nM and 21.3 nM.
In turn, `Cc1cnc2c(c1)S(=O)(=O)N(Cc1nc([C@@H](c3ccn4c(C(F)(F)F)nnc4c3C)C(C)(C)C(=O)O)ccc1C)CC1(CNC1)O2` (single isomer, unassigned) [Example 630, (*S)-2,2-Dimethyl-3-(8-methyl-3-(trifluoromethyl)-[1,2,4]triazolo[4,3-a]pyridin-7-yl)-3-(5-methyl-6-((8′-methyl-1′,1′-dioxidospiro[azetidine-3,4′-pyrido[2,3-b][1,4,5]oxathiazepin]-2′(3′H)-yl)methyl)pyridin-2-yl)propanoic Acid] gave an EC50 in test [1] of 81.8 nM. The Kd in test [2] worked out at 3.81 nM.
In test [1], `Cc1cnc([C@@H](c2ccn3c(C(F)(F)F)nnc3c2C)C(C)(C)C(=O)O)cc1CN1CC2(CCOCC2)Oc2ncccc2S1(=O)=O` (single isomer, unassigned) [Example 56, (*S)-3-(4-((1′,1′-Dioxido-2,3,5,6-tetrahydrospiro[pyran-4,4′-pyrido[2,3-b][1,4,5]oxathiazepin]-2′(3′H)-yl)methyl)-5-methylpyridin-2-yl)-2,2-dimethyl-3-(8-methyl-3-(trifluoromethyl)-[1,2,4]triazolo[4,3-a]pyridin-7-yl)propanoic Acid] returned an EC50 of 48 nM. Further, in test [2], the Kd is less than 1 nM.
`Cc1ccc([C@H](CC(=O)O)c2ccn3c(C(F)(F)F)nnc3c2C)cc1CN1C[C@H]2CCCN2c2ccccc2S1(=O)=O` (single isomer, unassigned) [Example 266, (*S)-3-(3-(((R)-5,5-Dioxido-7a,8,9,10-tetrahydrobenzo[f]pyrrolo[2,1-d][1,2,5]thiadiazepin-6(7H)-yl)methyl)-4-methylphenyl)-3-(8-methyl-3-(trifluoromethyl)-[1,2,4]triazolo[4,3-a]pyridin-7-yl)propanoic Acid]: the EC50 in test [1] was 14.6 nM. Also, the equilibrium dissociation constant (Kd) in test [2] is less than 1 nM.
`Cc1ccc([C@H](CC(=O)O)c2ccn3c(C)nnc3c2)cc1CN1C[C@H]2CCCN2c2ncccc2S1(=O)=O` (single isomer, unassigned) [Example 163, (*S)-3-(3-(((R)-5,5-Dioxido-7a,8,9,10-tetrahydropyrido[2,3-f]pyrrolo[2,1-d][1,2,5]thiadiazepin-6(7H)-yl)methyl)-4-methylphenyl)-3-(3-methyl-[1,2,4]triazolo[4,3-a]pyridin-7-yl)propanoic Acid] gave an EC50 in test [1] of 2750 nM. Also, in test [2], the Kd is less than 1 nM.
With `Cc1ccc([C@@H](c2ccn3c(C(F)(F)F)nnc3c2)C(C)(C)C(=O)O)cc1CN1CC2(CCOCC2)Oc2ncccc2S1(=O)=O` (single isomer, unassigned) [Example 320, (*S)-3-(3-((1′,1′-Dioxido-2,3,5,6-tetrahydrospiro[pyran-4,4′-pyrido[2,3-b][1,4,5]oxathiazepin]-2′(3′H)-yl)methyl)-4-methylphenyl)-2,2-dimethyl-3-(3-(trifluoromethyl)-[1,2,4]triazolo[4,3-a]pyridin-7-yl)propanoic Acid], the EC50 in test [1] worked out at 19400 nM. Further, the Kd in test [2] was found to be 831 nM.
On to `Cc1c(C(CC(=O)O)c2ccc(Cl)c(CN3CC4CCCCN4c4ncc(F)cc4S3(=O)=O)c2)ccn2c(C(F)(F)F)nnc12` (stereo not shown) [Example 92, 3-(4-Chloro-3-(((*S)-3-fluoro-5,5-dioxido-7,7a,8,9,10,11-hexahydro-6H-dipyrido[2,1-d:2′,3′-f][1,2,5]thiadiazepin-6-yl)methyl)phenyl)-3-(8-methyl-3-(trifluoromethyl)-[1,2,4]triazolo[4,3-a]pyridine-7-yl)propanoic Acid], for which, in test [1], the EC50 worked out at 28.6 nM. Further, in test [2], the Kd was less than 1 nM.
In the same order, the values of `Cc1ccc(C(CC(=O)O)c2ccn3c(C(F)F)nnc3c2C)cc1CN1CC2(CCOCC2)Oc2ccc(F)cc2S1(=O)=O` (stereo not shown) [Example 523, 3-(3-(Difluoromethyl)-8-methyl-[1,2,4]triazolo[4,3-a]pyridin-7-yl)-3-(3-((8-fluoro-1,1-dioxido-2′,3′,5′,6′-tetrahydrospiro[benzo[b][1,4,5]oxathiazepine-4,4′-pyran]-2(3H)-yl)methyl)-4-methylphenyl)propanoic Acid] are 23.9 nM and less than 1 nM.
In test [1], `Cc1ccc([C@H](CC(=O)O)c2ccc3c(nnn3CC3CC3)c2C(F)F)cc1CN1CC2CCCN2c2ncccc2S1(=O)=O` (stereo in doubt) [Example 66, (*S)-3-(1-(Cyclopropylmethyl)-4-(difluoromethyl-1H-benzo[d][1,2,3]triazol-5-yl)-3-(3-((R-5,5-dioxido-7a,8,9,10-tetrahydropyridi[2,3-f]pyrrolo[2,1-d][1,2,5]thiadiazepin-6(7H)-yl)methyl)-4-methylphenyl)propanoic Acid] gave an EC50 of 260 nM. Also, the Kd in test [2] came to 1 nM.
In test [1], `Cc1ccc([C@H](CC(=O)O)c2ccc3c(nnn3CC3CC3)c2C(F)F)cc1CN1C[C@@H]2CCCCN2c2ncccc2S1(=O)=O` (single isomer, unassigned) [Example 172, (*S)-3-(1-(Cyclopropylmethyl)-4-(difluoromethyl)-1H-benzo[d][1,2,3]triazol-5-yl)-3-(3-(((*S)-5,5-dioxido-7,7a,8,9,10,11-hexahydro-6H-dipyrido[2,1-d:2′,3′-f][1,2,5]thiadiazepin-6-yl)methyl)-4-methylphenyl)propanoic Acid] displayed an EC50 of 19 nM. Besides, the Kd in test [2] is less than 1 nM.
For `Cc1ccc([C@H](c2ccn3c(C(F)(F)F)nnc3c2C)C(C)(C)C(=O)O)nc1CN1CC2(CC2)Oc2nc(OCCN3CCCC3)c(C)cc2S1(=O)=O` (single isomer, unassigned) [Example 633, (*R)-2,2-Dimethyl-3-(8-methyl-3-(trifluoromethyl)-[1,2,4]triazolo[4,3-a]pyridin-7-yl)-3-(5-methyl-6-((8′-methyl-1′,1′-dioxido-7′-(2-(pyrrolidin-1-yl)ethoxy)spiro[cyclopropane-1,4′-pyrido[2,3-b][1,4,5]oxathiazepin]-2′(3′H)-yl)methyl)pyridin-2-yl)propanoic Acid], in test [1], the EC50 was found to be 1750 nM. In addition, in test [2], the Kd is 2260 nM.
`Cc1ccc(C(CC(=O)O)c2ccc3c(nnn3C3CC3)c2C)cc1CN1C[C@]2(C)CCCN2c2ncccc2S1(=O)=O` (mixture of isomers) [Example 218, (R/S)-3-(1-Cyclopropyl-4-methyl-1H-benzo[d][1,2,3]triazol-5-yl)-3-(4-methyl-3-(((*S)-7a-methyl-5,5-dioxido-7a,8,9,10-tetrahydropyrido[2,3-f]pyrrolo[2,1-d][1,2,5]thiadiazepin-6(7H)-yl)methyl)phenyl)propanoic Acid] registered an EC50 in test [1] of 6.6 nM. Moreover, in test [2], the Kd is less than 1 nM.
For `Cc1ccc([C@@H](CC(=O)O)c2ccn3c(C(F)(F)F)nnc3c2C)cc1CN1C[C@@H]2CCN2c2ncccc2S1(=O)=O` (single isomer, unassigned) [Example 293, (*R)-3-(3-(((*S)-5,5-Dioxido-7,7a, 8,9-tetrahydro-6H-azeto[2,1-d]pyrido[2,3-f][1,2,5]thiadiazepin-6-yl)methyl)-4-methylphenyl)-3-(8-methyl-3-(trifluoromethyl)-[1,2,4]triazolo[4,3-a]pyridin-7-yl)propanoic Acid] the same measures were 899 nM and 2.55 nM.
